# Results taken from US11576901B2, “Methods for treating viral infection” (HOWARD UNIVERSITY, priority 2016, dated 2023).
# Target: T1, RACK-1 (Homo sapiens, UniProt P63244)
# T1 construct: endogenous in cells; host or cells: Hep-2 cells infected with HSV-1
# Test: Western assay of RACK-1 expression in HSV-1 infected Hep-2 cells
# Format: cell-based
# Settings: 100 μM, 24 hours pretreatment, twenty hours after infection, FIG. 6
# Procedure: FIG. 6 is a Western assay showing expression of RACK-1, the IE protein ICP0, DE protein ICP8 and the L protein gD following infection of Hep-2 cells at varying multiplicity of infection (MOI) of HSV-1. In FIG. 6, ICP0 designates immediate early viral protein, ICP8 designates early viral protein, and dD designates late viral protein. Tubulin was used as a sample loading control. Prior to infection, Hep-2 cells were treated with DSMO as a control, 100 μM SD-29 or 100 μM SD29-12. After 24 hours of pretreatment, the Hep-2 cells were infected with HSV-1 at either 0.01, 0.05, 0.25 or 1.25 MOI (from 0.01 to 1.25). Twenty hours after infection, whole cell lysate samples were obtained and the Western assay shown in FIG. 6 was performed to examine protein levels.
compound,measurement,value
Nn1c(S)nnc1-c1ccc(F)cc1 [SD-29],expression of RACK-1,reduced expression of RACK-1
